Reference: PubChem BioAssay AID222 (DTP/NCI, 2004)
Values joined by “and” are separate entries in the source; they are usually repeats but may differ in a detail not shown here. Equal values may be shown once. Inconclusive results and toxic doses are left out.

Tested on: C57BL/6 mice, intracerebral ependymoblastoma, median survival T/C
Experiment: NCI In Vivo Anticancer Drug Screen. Data for tumor model Ependymoblastoma (intracerebral) in C57BL/6 mice
Conditions: endpoint: median survival time, higher = longer survival
Experimental: The antitumor activity of compounds was measured in mice bearing transplantable tumors. Survival or tumor size were measured and the results are expressed as the measurement made in the treated group (T) divided by the measurement made in the vehicle treated control group (C). The tumor model used in this assay is Ependymoblastoma (intracerebral) in C57BL/6 mice

OC(C1CO1)C(O)C1CO1 (centres undefined)
T/C (dose: 0.12 mg/kg/injection, schedule: Q03HX024 (ip), vehicle: saline): 108 % of control | T/C (dose: 0.25 mg/kg/injection, schedule: Q01DX001 (ip), vehicle: saline): 102 % of control | T/C (dose: 0.25 mg/kg/injection, schedule: Q01DX005 (ip), vehicle: saline): 112 % of control | T/C (dose: 0.25 mg/kg/injection, schedule: Q01DX005 (oral), vehicle: saline): 111 % of control | T/C (dose: 0.25 mg/kg/injection, schedule: Q01DX009 (ip), vehicle: saline): 101 % of control | T/C (dose: 0.25 mg/kg/injection, schedule: Q03HX008 (ip), vehicle: saline): 110 % of control | T/C (dose: 0.25 mg/kg/injection, schedule: Q03HX016 (ip), vehicle: saline): 103 % of control | T/C (dose: 0.25 mg/kg/injection, schedule: Q03HX024 (ip), vehicle: saline): 99 % of control | T/C (dose: 0.5 mg/kg/injection, schedule: Q01DX001 (ip), vehicle: saline): 112 % of control | T/C (dose: 0.5 mg/kg/injection, schedule: Q01DX001 (oral), vehicle: saline): 101 % of control | T/C (dose: 0.5 mg/kg/injection, schedule: Q01DX005 (ip), vehicle: clinical formulation): 104 % of control | T/C (dose: 0.5 mg/kg/injection, schedule: Q01DX005 (oral), vehicle: saline): 110 % of control | T/C (dose: 0.5 mg/kg/injection, schedule: Q01DX009 (ip), vehicle: saline): 108 % of control | T/C (dose: 0.5 mg/kg/injection, schedule: Q03HX008 (ip), vehicle: saline): 123 % of control | T/C (dose: 0.5 mg/kg/injection, schedule: Q03HX016 (ip), vehicle: saline): 107 % of control | T/C (dose: 0.5 mg/kg/injection, schedule: Q03HX024 (ip), vehicle: saline): 98 % of control | T/C (dose: 0.5 mg/kg/injection, schedule: Q## X006 (ip), vehicle: clinical formulation): 107 % of control | T/C (dose: 1.0 mg/kg/injection, schedule: Q01DX001 (ip), vehicle: saline): 95 % of control and 107 % of control | T/C (dose: 1.0 mg/kg/injection, schedule: Q01DX001 (oral), vehicle: saline): 108 % of control | T/C (dose: 1.0 mg/kg/injection, schedule: Q01DX005 (ip), vehicle: clinical formulation): 116 % of control | T/C (dose: 1.0 mg/kg/injection, schedule: Q01DX005 (oral), vehicle: saline): 106 % of control | T/C (dose: 1.0 mg/kg/injection, schedule: Q01DX009 (ip), vehicle: saline): 109 % of control | T/C (dose: 1.0 mg/kg/injection, schedule: Q03HX016 (ip), vehicle: saline): 113 % of control | T/C (dose: 1.0 mg/kg/injection, schedule: Q03HX024 (ip), vehicle: saline): 94 % of control | T/C (dose: 1.0 mg/kg/injection, schedule: Q04DX003 (ip), vehicle: saline): 100 % of control | T/C (dose: 1.0 mg/kg/injection, schedule: Q08DX002 (ip), vehicle: saline): 108 % of control | T/C (dose: 1.0 mg/kg/injection, schedule: Q## X006 (ip), vehicle: clinical formulation): 108 % of control | T/C (dose: 1.0 mg/kg/injection, schedule: Q#A X002 (ip), vehicle: clinical formulation): 104 % of control | T/C (dose: 1.25 mg/kg/injection, schedule: Q01DX005 (ip), vehicle: saline): 365 % of control | T/C (dose: 2.0 mg/kg/injection, schedule: Q01DX001 (ip), vehicle: clinical formulation): 91 % of control and 96 % of control and 107 % of control | T/C (dose: 2.0 mg/kg/injection, schedule: Q01DX001 (ip), vehicle: saline): 94 % of control and 100 % of control and 113 % of control | T/C (dose: 2.0 mg/kg/injection, schedule: Q01DX001 (oral), vehicle: saline): 108 % of control | T/C (dose: 2.0 mg/kg/injection, schedule: Q01DX005 (ip), vehicle: clinical formulation): 115 % of control | T/C (dose: 2.0 mg/kg/injection, schedule: Q01DX005 (oral), vehicle: clinical formulation): 106 % of control | T/C (dose: 2.0 mg/kg/injection, schedule: Q01DX005 (oral), vehicle: saline): 118 % of control | T/C (dose: 2.0 mg/kg/injection, schedule: Q01DX009 (ip), vehicle: saline): 113 % of control | T/C (dose: 2.0 mg/kg/injection, schedule: Q03HX016 (ip), vehicle: saline): 118 % of control | T/C (dose: 2.0 mg/kg/injection, schedule: Q03HX024 (ip), vehicle: saline): 105 % of control | T/C (dose: 2.0 mg/kg/injection, schedule: Q04DX003 (ip), vehicle: saline): 105 % of control | T/C (dose: 2.0 mg/kg/injection, schedule: Q08DX002 (ip), vehicle: saline): 102 % of control | T/C (dose: 2.0 mg/kg/injection, schedule: Q## X006 (ip), vehicle: clinical formulation): 109 % of control | T/C (dose: 2.0 mg/kg/injection, schedule: Q#A X002 (ip), vehicle: clinical formulation): 106 % of control | T/C (dose: 2.5 mg/kg/injection, schedule: Q01DX005 (oral), vehicle: saline): 365 % of control | T/C (dose: 3.0 mg/kg/injection, schedule: Q01DX005 (ip), vehicle: saline): 119 % of control and 301 % of control | T/C (dose: 4.0 mg/kg/injection, schedule: Q01DX001 (ip), vehicle: clinical formulation): 102 % of control and 105 % of control and 108 % of control | T/C (dose: 4.0 mg/kg/injection, schedule: Q01DX001 (ip), vehicle: saline): 94 % of control and 120 % of control | T/C (dose: 4.0 mg/kg/injection, schedule: Q01DX001 (oral), vehicle: saline): 96 % of control | T/C (dose: 4.0 mg/kg/injection, schedule: Q01DX009 (ip), vehicle: saline): 103 % of control | T/C (dose: 4.0 mg/kg/injection, schedule: Q03HX008 (ip), vehicle: saline): 97 % of control | T/C (dose: 4.0 mg/kg/injection, schedule: Q03HX016 (ip), vehicle: saline): 93 % of control | T/C (dose: 4.0 mg/kg/injection, schedule: Q03HX024 (ip), vehicle: saline): 94 % of control | T/C (dose: 4.0 mg/kg/injection, schedule: Q04DX003 (ip), vehicle: saline): 95 % of control | T/C (dose: 4.0 mg/kg/injection, schedule: Q08DX002 (ip), vehicle: saline): 102 % of control | T/C (dose: 4.0 mg/kg/injection, schedule: Q#A X002 (ip), vehicle: clinical formulation): 117 % of control | T/C (dose: 5.0 mg/kg/injection, schedule: Q01DX005 (oral), vehicle: saline): 365 % of control | T/C (dose: 8.0 mg/kg/injection, schedule: Q01DX001 (ip), vehicle: clinical formulation): 89 % of control and 106 % of control | T/C (dose: 8.0 mg/kg/injection, schedule: Q01DX001 (ip), vehicle: saline): 94 % of control and 108 % of control and 112 % of control | T/C (dose: 8.0 mg/kg/injection, schedule: Q01DX001 (oral), vehicle: clinical formulation): 91 % of control and 102 % of control and 115 % of control | T/C (dose: 8.0 mg/kg/injection, schedule: Q01DX001 (oral), vehicle: saline): 108 % of control | T/C (dose: 8.0 mg/kg/injection, schedule: Q01DX009 (ip), vehicle: saline): 107 % of control | T/C (dose: 8.0 mg/kg/injection, schedule: Q03HX008 (ip), vehicle: saline): 95 % of control | T/C (dose: 8.0 mg/kg/injection, schedule: Q03HX016 (ip), vehicle: saline): 94 % of control | T/C (dose: 8.0 mg/kg/injection, schedule: Q04DX003 (ip), vehicle: saline): 122 % of control | T/C (dose: 8.0 mg/kg/injection, schedule: Q08DX002 (ip), vehicle: saline): 104 % of control | T/C (dose: 8.0 mg/kg/injection, schedule: Q#A X002 (ip), vehicle: clinical formulation): 100 % of control | T/C (dose: 16.0 mg/kg/injection, schedule: Q01DX001 (ip), vehicle: clinical formulation): 98 % of control | T/C (dose: 16.0 mg/kg/injection, schedule: Q01DX001 (ip), vehicle: saline): 98 % of control and 101 % of control | T/C (dose: 16.0 mg/kg/injection, schedule: Q01DX001 (oral), vehicle: clinical formulation): 104 % of control and 108 % of control | T/C (dose: 16.0 mg/kg/injection, schedule: Q01DX001 (oral), vehicle: saline): 101 % of control | T/C (dose: 16.0 mg/kg/injection, schedule: Q04DX003 (ip), vehicle: saline): 99 % of control | T/C (dose: 16.0 mg/kg/injection, schedule: Q08DX002 (ip), vehicle: saline): 104 % of control | T/C (dose: 16.0 mg/kg/injection, schedule: Q#A X002 (ip), vehicle: clinical formulation): 102 % of control | T/C (dose: 32.0 mg/kg/injection, schedule: Q01DX001 (ip), vehicle: clinical formulation): 100 % of control | T/C (dose: 32.0 mg/kg/injection, schedule: Q01DX001 (ip), vehicle: saline): 90 % of control and 100 % of control | T/C (dose: 32.0 mg/kg/injection, schedule: Q01DX001 (oral), vehicle: clinical formulation): 100 % of control and 114 % of control | T/C (dose: 32.0 mg/kg/injection, schedule: Q01DX001 (oral), vehicle: saline): 103 % of control | T/C (dose: 32.0 mg/kg/injection, schedule: Q04DX003 (ip), vehicle: saline): 92 % of control | T/C (dose: 32.0 mg/kg/injection, schedule: Q08DX002 (ip), vehicle: saline): 99 % of control | T/C (dose: 64.0 mg/kg/injection, schedule: Q01DX001 (ip), vehicle: saline): 97 % of control and 102 % of control | T/C (dose: 64.0 mg/kg/injection, schedule: Q01DX001 (oral), vehicle: clinical formulation): 100 % of control | T/C (dose: 128.0 mg/kg/injection, schedule: Q01DX001 (oral), vehicle: clinical formulation): 100 % of control

Cc1c2ccncc2c(C)c2c1[nH]c1ccccc12
T/C (dose: 128.0 mg/kg/injection, schedule: Q01DX001 (ip), vehicle: Klucel (hydroxypropylcellulose) (HPC)): 103 % of control

O=[N+]([O-])O.[Ga]
T/C (dose: 32.0 mg/kg/injection, schedule: Q01DX005 (ip), vehicle: saline): 110 % of control

COC1C(CO)OC(n2cnc3c(=S)nc(N)[nH]c32)C1O (centres undefined)
T/C (dose: 100.0 mg/kg/injection, schedule: Q01DX005 (ip), vehicle: Klucel (hydroxypropylcellulose) (HPC)): 91 % of control
